Earlier results as cited in patent US20190209502A1, “COMBINATION GEL FOR SEXUALLY TRANSMITTED INFECTIONS” (EVOFEM, INC., priority 2016, published 2019).

Test system: HIV
Settings: compared with D or racemic lactic acid

Question: With `C[C@H](O)C(=O)O` [L form of lactic acid, L-(+)-lactic acid] as the molecule, how does the “potency in inactivating HIV” value read?
Answer: more potent in inactivating HIV than D or racemic lactic acid
